# Results taken from patent US20240398788A1, “METHODS OF TREATING CANCER USING HSF1 PATHWAY INHIBITORS” (Institute of Cancer Research, priority 2021, published 2024).
# Columns and labels:
# [1] = tested on: OVISE ovarian cancer xenograft (ARID1A mutation); assay: OVISE ovarian cancer xenograft efficacy study; type: in vivo, NCr nude mice; conditions: 35 mg/kg oral once daily, 5/7 days, 38/52 doses/study days
# From the text: (§1) The in vivo efficacy of Compound A was investigated in xenograft tumours in athymic nude mice with a focus on ovarian cancers. […] Of the seven cell lines, SK-OV-3; TOV-21G, OVISE, and IGROV1 were identified as harboring an ARID1A mutation, while OVCAR-5, ES-2, and RMG1 were ARID1A wildtype.
# (§2) Once the tumours were established, mice were randomised into vehicle control and treatment groups. Mice in both the vehicle control and treatment groups that were removed during the course of the study due to spontaneous or treatment derived tumour regression, tumour growth approaching license limits, tumour ulceration or loss of condition were excluded from the final analysis of the mean tumour volume and standard error of the mean and up to the point they were removed from the study. The number of mice undergoing complete tumour regression in the treatment group is noted where applicable.
# (§3) Two groups of 12 female NCr nude mice (3 groups of 10 for SK-OV-3) were injected with 3-5×10^6 cells of one of the above cancer cell lines, subcutaneously. […] Body weights were taken daily and animals were monitored for signs of toxicity. To evaluate drug levels the animals were euthanised in batches of 3 to 4 at 2, 6 and 24 hours after the last dose and terminal plasma and tumour samples collected for PK analysis.
# [2] = tested on: IGROV1 ovarian cancer xenograft (ARID1A mutation); assay: IGROV1 ovarian cancer xenograft efficacy study; type: in vivo, NCr nude mice; conditions: 35 mg/kg oral once daily, intermittent, 11/15 doses/study days
# From the text: as §1, §2, §3
# [3] = tested on: SK-OV-3 ovarian cancer xenograft (ARID1A mutation); assay: SK-OV-3 ovarian cancer xenograft efficacy study; type: in vivo, athymic nude mice
# Protocol: The tumor was identified as harboring an ARID1A mutation. […] Control and 35 mg/kg group n=10. Horizontal black line is 35 mg/kg group tumour volume on Day 0.
# as §1, §2
# (§4) Two groups of 12 female NCr nude mice (3 groups of 10 for SK-OV-3) were injected with 3-5×10^6 cells of one of the above cancer cell lines, subcutaneously. […] Body weights were taken daily and animals were monitored for signs of toxicity. […]
# [4] = tested on: TOV-21G ovarian cancer xenograft (ARID1A mutation); assay: TOV-21G ovarian cancer xenograft efficacy study; type: in vivo, NCr nude mice; conditions: TOV-21G xenograft, 35 mg/kg oral once daily, 5/7 days, 21/19 doses/study days
# Protocol: The tumor was identified as harboring an ARID1A mutation. […] Vehicle control group n=8 and 35 mg/kg dose group n=11.
# as §1, §2, §4
# [5] = tested on: OVCAR-5 ovarian cancer xenograft (ARID1A wildtype)
# From the text: as §2, §3
# [6] = tested on: ES-2 ovarian cancer xenograft (ARID1A wildtype)
# From the text: as §2, §3
# [7] = tested on: RMG1 ovarian cancer xenograft (ARID1A wildtype)
# From the text: as §2, §3
structure (smiles),measurement,setting,value
"CCN1CCN(Cc2ccc3cc(C(=O)Nc4cc(NC(=O)c5ccc6c(c5)OCCO6)ccc4F)ccc3n2)CC1 [Compound A, N-(5-(2,3-Dihydrobenzo[b][1,4]dioxine-6-carboxamido)-2-fluorophenyl)-2-((4-ethylpiperazin-1-yl)methyl)quinoline-6-carboxamide]",TGI (%),[1],70%
same,TGI (%),[2],56%
same,sensitivity in xenograft models (in words),"[3]; SK-OV-3, ARID1A mutated, compared with the other six xenografts",most sensitive cell line in xenograft models
same,TGI (%),"[3]; SK-OV-3 xenograft, 35 mg/kg oral once daily, continuous, 20/20 doses/study days",120%
same,TGI (%),[4],81%
same,efficacy in xenograft model (in words),"[5]; OVCAR-5 ARID1A wild type model, criterion TGI>50%",did not meet the criteria for efficacy
same,TGI (%),"[5]; OVCAR-5 xenograft, 35 mg/kg oral once daily, 5/7 days, 21/27 doses/study days",27%
same,efficacy in xenograft model (in words),"[6]; ES-2 ARID1A wild type model, criterion TGI>50%",did not meet the criteria for efficacy
same,TGI (%),"[6]; ES-2 xenograft, 35 mg/kg oral once daily, 5/7 days, 12/17 doses/study days",12%
same,inhibition of xenograft tumour growth (in words),[7]; RMG1 ARID1A wildtype model,No inhibition of xenograft tumour growth
same,TGI (%),"[7]; RMG1 xenograft, 35 mg/kg oral once daily, 5/7 days, 15/19 doses/study days",−3.0%
